Measurements as given in patent US6784205B2, “Compounds that modulate the activity of PTP-1B and TC-PTP” (Sunesis Pharmaceuticals, Inc., priority 2002, dated 2004).

Experiments:
[1] = target: tyrosine phosphatase leukocyte common antigen related protein (LAR) (Homo sapiens, UniProt P10586); experiment: Inhibition of LAR; format: biochemical
TC-PTP = target: T1, TC-PTP (Homo sapiens, UniProt P17706); experiment: Inhibition of TC-PTP; format: biochemical; conditions: read-out: IC50 against TC-PTP
T1 sequence (P17706 1-415): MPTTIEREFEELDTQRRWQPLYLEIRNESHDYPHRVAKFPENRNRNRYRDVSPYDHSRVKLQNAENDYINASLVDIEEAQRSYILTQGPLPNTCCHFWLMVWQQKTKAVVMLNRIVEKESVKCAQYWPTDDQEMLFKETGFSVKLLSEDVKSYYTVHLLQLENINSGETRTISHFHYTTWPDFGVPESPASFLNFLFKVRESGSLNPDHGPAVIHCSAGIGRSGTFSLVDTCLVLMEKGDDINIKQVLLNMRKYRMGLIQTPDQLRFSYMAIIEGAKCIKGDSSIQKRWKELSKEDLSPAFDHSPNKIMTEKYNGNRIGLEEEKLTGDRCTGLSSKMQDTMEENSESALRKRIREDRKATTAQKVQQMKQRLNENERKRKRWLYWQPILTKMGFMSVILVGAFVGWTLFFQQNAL

human PTP-1B = target: T2, human PTP-1B (Homo sapiens, UniProt P18031); experiment: PTP-1B IC50 determination with pNPP substrate; format: biochemical
T2 construct: A shorter cDNA, PTP-1B 298, encoding amino acid residues 1-298 was generated; made in house; host or cells: E. coli BL21 codon plus (Stratagene), pRSETc
T2 sequence (P18031 1-298): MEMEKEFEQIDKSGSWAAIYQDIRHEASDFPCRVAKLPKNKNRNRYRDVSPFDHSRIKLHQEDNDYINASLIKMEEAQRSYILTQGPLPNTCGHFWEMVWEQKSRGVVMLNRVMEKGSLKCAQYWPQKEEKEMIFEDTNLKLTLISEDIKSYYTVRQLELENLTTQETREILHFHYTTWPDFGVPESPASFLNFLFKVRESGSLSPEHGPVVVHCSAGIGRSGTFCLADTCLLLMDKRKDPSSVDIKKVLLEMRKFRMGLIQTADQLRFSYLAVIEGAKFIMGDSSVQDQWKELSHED

[2] = test system: insulin receptor phosphorylation in CHO-IR cells; experiment: Insulin receptor phosphorylation in CHO-IR cells (ELISA); format: cell-based; conditions: compound added 1 hour prior to harvesting, FIG. 9
Protocol: This example describes an illustrative assay for quantifying the degree of insulin receptor phosphorylation in cells. Any suitable cells can be used. In this example, CHO-IR cells were grown in DMEM w/10% fetal bovine serum supplemented with penicillin and streptomycin. Cells were plated at a density of 40,000 cells per well in a 96 well plate. The following day, the medium was changed to DMEM without serum and the cells were serum starved for 16 hours. 1 hour prior to harvesting, varying concentrations of a test compound diluted in DMEM were added to the cells. Where indicated, human insulin was added to cells 10 minutes prior to harvesting. Cell were lysed in 30 mM HEPES, 150 mM NaCl, 1% triton X-100, and 0.02% sodium azide. Insulin receptor phosphorylation was quantitated in an ELISA assay as described previously (Jongsoon Lee).

tyrosine phosphatase leukocyte common antigen related protein (LAR), sequence (P10586 30-1907): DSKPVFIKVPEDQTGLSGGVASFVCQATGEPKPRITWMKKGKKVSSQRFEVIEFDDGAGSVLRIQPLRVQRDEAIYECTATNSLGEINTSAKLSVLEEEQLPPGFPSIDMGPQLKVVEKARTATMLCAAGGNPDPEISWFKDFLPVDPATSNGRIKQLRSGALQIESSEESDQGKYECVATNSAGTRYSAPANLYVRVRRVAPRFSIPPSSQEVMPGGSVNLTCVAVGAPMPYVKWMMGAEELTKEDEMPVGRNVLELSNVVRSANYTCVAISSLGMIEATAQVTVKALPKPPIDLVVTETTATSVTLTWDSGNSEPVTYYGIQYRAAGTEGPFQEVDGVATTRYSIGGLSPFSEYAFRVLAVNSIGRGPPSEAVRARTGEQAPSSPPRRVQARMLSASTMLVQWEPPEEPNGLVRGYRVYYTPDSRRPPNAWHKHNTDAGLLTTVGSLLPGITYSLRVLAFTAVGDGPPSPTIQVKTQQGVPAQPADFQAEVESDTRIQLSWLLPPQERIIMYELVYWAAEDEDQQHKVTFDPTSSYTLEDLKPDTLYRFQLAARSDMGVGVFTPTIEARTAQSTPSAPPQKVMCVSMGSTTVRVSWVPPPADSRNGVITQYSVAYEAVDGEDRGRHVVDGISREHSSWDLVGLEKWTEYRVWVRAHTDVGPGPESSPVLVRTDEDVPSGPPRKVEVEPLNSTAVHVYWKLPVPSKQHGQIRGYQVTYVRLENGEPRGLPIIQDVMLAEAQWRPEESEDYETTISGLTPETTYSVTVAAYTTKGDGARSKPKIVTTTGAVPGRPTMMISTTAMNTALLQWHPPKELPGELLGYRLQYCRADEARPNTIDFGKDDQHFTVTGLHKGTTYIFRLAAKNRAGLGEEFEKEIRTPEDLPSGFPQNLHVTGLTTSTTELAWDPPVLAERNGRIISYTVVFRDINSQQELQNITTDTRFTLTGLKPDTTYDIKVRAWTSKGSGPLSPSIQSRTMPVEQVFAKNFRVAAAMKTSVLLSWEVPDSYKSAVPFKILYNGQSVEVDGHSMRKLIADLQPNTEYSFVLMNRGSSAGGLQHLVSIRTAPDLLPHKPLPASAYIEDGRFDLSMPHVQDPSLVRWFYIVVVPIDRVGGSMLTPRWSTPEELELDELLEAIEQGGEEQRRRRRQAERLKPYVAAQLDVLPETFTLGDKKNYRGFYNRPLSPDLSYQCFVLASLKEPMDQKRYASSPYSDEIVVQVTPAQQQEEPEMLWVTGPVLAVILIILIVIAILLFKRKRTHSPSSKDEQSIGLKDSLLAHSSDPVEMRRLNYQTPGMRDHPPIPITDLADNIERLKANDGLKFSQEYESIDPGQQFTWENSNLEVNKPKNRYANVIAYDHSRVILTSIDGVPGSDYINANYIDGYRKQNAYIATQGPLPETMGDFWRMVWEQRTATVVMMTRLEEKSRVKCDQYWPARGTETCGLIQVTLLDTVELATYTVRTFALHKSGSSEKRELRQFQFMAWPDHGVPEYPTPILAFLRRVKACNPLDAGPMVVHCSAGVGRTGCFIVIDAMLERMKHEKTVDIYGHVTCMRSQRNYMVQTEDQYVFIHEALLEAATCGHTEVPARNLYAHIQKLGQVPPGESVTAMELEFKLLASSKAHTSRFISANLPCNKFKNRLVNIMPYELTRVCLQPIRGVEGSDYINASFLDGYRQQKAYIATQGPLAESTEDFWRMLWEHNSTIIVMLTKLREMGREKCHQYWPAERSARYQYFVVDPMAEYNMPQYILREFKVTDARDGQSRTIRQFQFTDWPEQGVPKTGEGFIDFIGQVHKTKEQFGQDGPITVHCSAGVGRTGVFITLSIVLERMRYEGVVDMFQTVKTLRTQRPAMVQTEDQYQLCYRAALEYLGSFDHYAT

inhibition of LAR [1]: does not inhibit
IC50 (TC-PTP): ~130 µM
dependence of reaction velocity on substrate concentration (human PTP-1B; pNPP, varying concentrations of inhibitor): sigmoidal dependence
effect on Vmax with increasing inhibitor concentration (human PTP-1B; reaction velocity versus pNPP concentration, FIG. 8): decrease in Vmax
SMILES: CCc1oc2cc(S(=O)(=O)Nc3ccc(S(N)(=O)=O)cc3)ccc2c1C(=O)c1cc(Br)c(O)c(Br)c1 [compound 5]
level of insulin receptor phosphorylation [2]: is a function of the concentration of compound 5
